The source of these data is ChEMBL document CHEMBL3734730, “Discovery of novel 2-benzylisoquinolin-1(2H)-ones as potent vasodilative agents” (Bioorg Med Chem Lett, 2015).

The nature of assay [1]: Vasodilative activity in isolated Sprague-Dawley rat Superior mesenteric arterial ring assessed as reduction in KCl-induced contraction at 10^-5 by wire myograph method. It is filed as functional. Further details: scale not given: the % may be the effect or the level left.
The nature of assay [2]: Vasodilative activity in isolated Sprague-Dawley rat Superior mesenteric arterial ring assessed as reduction in KCl-induced contraction by wire myograph method relative to control. It is filed as functional.
Assay [3] is described as follows: Vasodilative activity in isolated Sprague-Dawley rat mesenteric arterial ring assessed as reduction in phenylephrine-induced contraction at 10 uM pretreated for 30 mins followed by addition of 10^-8 to 10^-4 M phenylephrine by wire myograph method relative to control. Format: functional. Particulars: Mesenteric artery.
The nature of assay [4]: Vasodilative activity in isolated Sprague-Dawley rat second-order mesenteric arterial ring assessed as reduction in KCl-induced contraction by wire myograph method relative to control. Format: functional. The conditions noted are these: Mesenteric artery.
Assay [5] can be described thus: Vasodilative activity in isolated Sprague-Dawley rat third-order mesenteric arterial ring assessed as reduction in KCl-induced contraction by wire myograph method relative to control. It is filed as functional. The conditions noted are these: Mesenteric artery.
Assay [6] is described as follows: Vasodilative activity in isolated Sprague-Dawley rat renal arterial ring assessed as reduction in KCl-induced contraction by wire myograph method relative to control. The conditions noted are these: Renal artery. It is filed as functional.
Assay [7] can be described thus: Vasodilative activity in isolated Sprague-Dawley rat cerebral basilar arterial ring assessed as reduction in KCl-induced contraction by wire myograph method relative to control. Format: functional. The conditions noted are these: Basilar artery.
A short description of assay [8]: Vasodilative activity in isolated Sprague-Dawley rat coronary artery assessed as reduction in KCl-induced contraction by wire myograph method relative to control. Format: functional, tissue-based.
Assay [9] relates to Rattus norvegicus. As to the kind of experiment: Antihypertensive activity in SHR rat assessed as reduced systolic pressure at 1 mg/kg, po after 2 hrs by tail-cuff plethysmography (reference value: 2 mmHg). Format: functional, Blood.
The subject of assay [10] is Rattus norvegicus. As to the kind of experiment: Antihypertensive activity in SHR rat assessed as reduced systolic pressure at 2 mg/kg, po after 2 hrs by tail-cuff plethysmography (reference value: 2 mmHg). It is filed as functional, Blood.
For assay [11], the system named is Rattus norvegicus. The experiment in a line: Antihypertensive activity in SHR rat assessed as reduced systolic pressure at 4 mg/kg, po after 2 hrs by tail-cuff plethysmography (reference value: 2 mmHg). It is filed as functional, Blood.
In assay [12] the test system is Rattus norvegicus. The experiment in a line: Antihypertensive activity in SHR rat assessed as reduced systolic pressure at 8 mg/kg, po after 2 hrs by tail-cuff plethysmography (reference value: 2 mmHg). It is filed as functional, Blood.
In assay [13] the test system is Rattus norvegicus. The experiment in a line: Antihypertensive activity in SHR rat assessed as reduced diastolic pressure at 1 mg/kg, po after 2 hrs by tail-cuff plethysmography (reference value: 2 mmHg). Format: functional, Blood.
Assay [14] has as its system Rattus norvegicus. The experiment in a line: Antihypertensive activity in SHR rat assessed as reduced diastolic pressure at 2 mg/kg, po after 2 hrs by tail-cuff plethysmography (reference value: 2 mmHg). Format: functional, Blood.
The subject of assay [15] is Rattus norvegicus. As to the kind of experiment: Antihypertensive activity in SHR rat assessed as reduced diastolic pressure at 4 mg/kg, po after 2 hrs by tail-cuff plethysmography (reference value: 2 mmHg). Format: functional, Blood.
Assay [16] relates to Rattus norvegicus. The experiment in a line: Antihypertensive activity in SHR rat assessed as reduced diastolic pressure at 8 mg/kg, po after 2 hrs by tail-cuff plethysmography (reference value: 2 mmHg). It is filed as functional, Blood.
Assay [17] concerns Rattus norvegicus. As to the kind of experiment: Antihypertensive activity in SHR rat assessed as reduced systolic pressure at 4 mg/kg, po after 0.5 hrs by tail-cuff plethysmography. It is filed as functional.
Assay [18] relates to Rattus norvegicus. The experiment in a line: Antihypertensive activity in SHR rat assessed as reduced systolic pressure at 4 mg/kg, po after 1 hr by tail-cuff plethysmography. Format: functional, Blood.
The test system of assay [19] is Rattus norvegicus. The experiment in a line: Antihypertensive activity in SHR rat assessed as reduced systolic pressure at 4 mg/kg, po after 5 hrs by tail-cuff plethysmography. Format: functional, Blood.
Assay [20] concerns Rattus norvegicus. As to the kind of experiment: Antihypertensive activity in SHR rat assessed as reduced diastolic pressure at 4 mg/kg, po after 0.5 hrs by tail-cuff plethysmography. It is filed as functional, Blood.
Assay [21] relates to Rattus norvegicus. As to the kind of experiment: Antihypertensive activity in SHR rat assessed as reduced diastolic pressure at 4 mg/kg, po after 1 hr by tail-cuff plethysmography. It is filed as functional.
The test system of assay [22] is Rattus norvegicus. The experiment in a line: Antihypertensive activity in SHR rat assessed as reduced diastolic pressure at 4 mg/kg, po after 4 hrs by tail-cuff plethysmography. Format: functional.
Assay [23] relates to Rattus norvegicus. The experiment in a line: Antihypertensive activity in po-dosed SHR rat assessed as reduced diastolic pressure after 2 hrs by tail-cuff plethysmography. Particulars: Blood. It is filed as functional, organism-based.
Assay [24] relates to Rattus norvegicus. The experiment in a line: Antihypertensive activity in po-dosed SHR rat assessed as reduced systolic pressure after 2 hrs by tail-cuff plethysmography. It is filed as functional, organism-based. Particulars: Blood.

SMILES strings stand for the structures. Activity calls are given as the source filed them. No cut-off for these calls is given here.

In the case of `COc1cc2ccn(Cc3ccc(Cl)c(Cl)c3)c(=O)c2cc1OC`, the Activity in [1] was 26.6%.

As to `COC(=O)c1cccc(Cn2ccc3cc4c(cc3c2=O)OCO4)c1`, in [2], the EC50 (in general, the concentration at which the effect is half-maximal) is 3980 nM and the Rmax came out at 51.4%. Also, the Activity in assay [1] was determined as 50.6%.

Take `COC(=O)c1cccc(Cn2ccc3cc(OC)c(OC)cc3c2=O)c1`: in assay [1], the Activity was determined as 37.6%.

On to `COc1ccc(Cn2ccc3cc(OC)ccc3c2=O)cc1`, for which, in [2], the EC50 is 794 nM and the Rmax turned out to be 90.8%. Moreover, the Activity in assay [1] is 83.7%.

Take `COc1cc2ccn(Cc3cc(OC)c(OC)c(OC)c3)c(=O)c2cc1OC`: in [2], the concentration giving a half-maximal response (EC50) is 15800 nM and the Rmax was 73.1%. Also, the Activity in assay [1] came out at 48.4%.

For the compound `COc1cc(OC)c2c(=O)n(Cc3cc(OC)c(OC)c(OC)c3)ccc2c1`, in assay [2], the half-maximal effective concentration (EC50) is 6310 nM and the Rmax is 89.5%. The Activity in assay [1] stood at 53.1%.

For `COc1cc2ccn(Cc3cccc(F)c3)c(=O)c2cc1OC`, in [2], the EC50 is 3980 nM and the Rmax is 54.2%. Moreover, the Activity in [1] was 54%.

For `O=c1c2cc(O)ccc2ccn1Cc1ccccc1`, in [2], the EC50 was 25100 nM and the Rmax worked out at 60.6%. In addition, in assay [1], the Activity amounted to 48.5%.

For the compound `O=C(O)c1cccc(Cn2ccc3cc4c(cc3c2=O)OCO4)c1`, the Activity in [1] was determined as 34.2%.

In the case of `COc1ccc2c(=O)n(Cc3ccc(OC)c(OC)c3)ccc2c1`, in assay [2], the EC50 is 3160 nM and the Rmax came out at 84.7%. The Activity in [1] came to 59%.

Take `COc1cc(OC)c2c(=O)n(Cc3ccc(OC)c(OC)c3)ccc2c1`: in assay [2], the concentration for a half-maximal effect (EC50) is 1000 nM and the Rmax turned out to be 76.4%. Besides, the Activity in assay [1] was 66.8%.

For the compound `COc1cc(OC)c2c(=O)n(Cc3ccc(OCc4ccc(F)cc4)c(OC)c3)ccc2c1`, in assay [2], the EC50 was 501 nM and the Rmax came to 75.3%. The Activity in [1] stood at 74.1%.

Regarding `COc1ccc(Cn2ccc3cccc(OC)c3c2=O)cc1`, the EC50 in [2] is 200 nM; in assay [4] it was 20 nM; in [5], 126 nM; in assay [6], 631 nM; in assay [7] it was 398 nM; in assay [8] it was 2000 nM. Moreover, in assay [2], the Rmax was 106%. Also, the Activity in assay [1] amounted to 96.3%; in the assay with Rattus norvegicus [9], 6 mmHg; in the assay with Rattus norvegicus [10] it was 14 mmHg; in the assay with Rattus norvegicus [11], 38 mmHg; with Rattus norvegicus [12], 46 mmHg; in the assay on Rattus norvegicus [13], 10 mmHg. Besides, the Activity in the assay with Rattus norvegicus [14] was found to be 16 mmHg; in the assay with Rattus norvegicus [15], 44 mmHg; in the assay with Rattus norvegicus [16] it was 53 mmHg; in the assay with Rattus norvegicus [17], 4 mmHg; with Rattus norvegicus [18] it was 7 mmHg; in the assay on Rattus norvegicus [19], 6 mmHg. Moreover, the Activity in the assay with Rattus norvegicus [20] was determined as 0 mmHg; in the assay on Rattus norvegicus [21], 8 mmHg; in the assay on Rattus norvegicus [22] it was 10 mmHg. Besides, the inhibition result in assay [3] was “Active”. For the same compound, the maximal effect (Emax) (as a rule, the maximal effect, on the per cent scale that the assay sets) in [4] came out at 95.4%; in [5], 99.9%; in [6], 122%; in assay [7] it was 103%; in [8] it was 107%. The inhibition entry with Rattus norvegicus [23] and with Rattus norvegicus [24] was “Dose-dependent effect” each time.

With `COc1cccc2ccn(Cc3ccccc3)c(=O)c12`, in assay [2], the concentration giving a half-maximal response (EC50) was 2510 nM and the Rmax worked out at 71.3%. In addition, the Activity in assay [1] turned out to be 63.2%.

For the compound `COc1cc2ccn(Cc3cccc([N+](=O)[O-])c3)c(=O)c2cc1OC`, in assay [2], the concentration giving a half-maximal response (EC50) is 2000 nM and the Rmax is 67.4%. Moreover, in assay [1], the Activity is 57.4%.

For `COc1cc2ccn(Cc3ccc(F)cc3)c(=O)c2cc1OC`, the Activity in [1] amounted to 35.2%.

In the case of `COc1cc2ccn(Cc3cccc(N)c3)c(=O)c2cc1OC`, in assay [2], the EC50 was 5010 nM and the Rmax is 52.3%. For the same compound, the Activity in assay [1] came out at 51%.

With `O=c1c2ccc(O)cc2ccn1Cc1ccccc1`, in [2], the EC50 is 3160 nM and the Rmax came to 74.2%. In [1], the Activity was 64.3%.

For `COc1ccc2c(=O)n(Cc3cc(OC)c(OC)c(OC)c3)ccc2c1`, in assay [2], the EC50 was 2000 nM and the Rmax was determined as 84%. Besides, in [1], the Activity came to 72%.

Consider `COc1cc2ccn(Cc3ccccc3)c(=O)c2cc1OC`, for which, in [1], the Activity was 42.3%.

Consider `COc1cc(Cn2ccc3cccc(OC)c3c2=O)cc(OC)c1OC`, for which, in [2], the EC50 was 251 nM. In addition, in assay [2], the Rmax was determined as 98.7%. In addition, the Activity in assay [1] was determined as 93.8%; in the assay on Rattus norvegicus [9], 3 mmHg; with Rattus norvegicus [10] it was 15 mmHg; in the assay with Rattus norvegicus [11] it was 34 mmHg; in the assay on Rattus norvegicus [12], 44 mmHg; with Rattus norvegicus [13], 1 mmHg. For the same compound, the Activity in the assay on Rattus norvegicus [14] is listed as 12 mmHg; in the assay with Rattus norvegicus [15] it was 39 mmHg; in the assay with Rattus norvegicus [16], 49 mmHg. Moreover, the inhibition result in assay [3] was “Active”. For the same compound, the inhibition result in the assay on Rattus norvegicus [23] and with Rattus norvegicus [24] was “Dose-dependent effect” throughout.

`COc1cc(O)c2c(=O)n(Cc3ccc(OC)c(OC)c3)ccc2c1`: in assay [2], the EC50 was 501 nM and the Rmax was determined as 91.6%. For the same compound, the Activity in assay [1] came out at 81.3%.

As for `CCOC(=O)C1=C(C)NC(C)=C(C(=O)OC)C1c1cccc([N+](=O)[O-])c1` (stereo not given) [NITRENDIPINE], in [2], the concentration giving a half-maximal response (EC50) is 0.316 nM. Further, the Rmax in assay [2] was 99.8%. The figures for the Activity (in assay [1]; with Rattus norvegicus [10]; with Rattus norvegicus [14]) were 99.9%, 9 mmHg and 5 mmHg, respectively.

On to `COc1ccc2c(=O)n(Cc3ccc(OCc4ccc(F)cc4)c(OC)c3)ccc2c1`, for which, in [2], the EC50 is 398 nM and the Rmax was 94.3%. In [1], the Activity was determined as 82.4%.

As for `COc1ccc2c(=O)n(Cc3ccccc3)ccc2c1`, in assay [2], the EC50 is 2000 nM and the Rmax amounted to 61.8%. The Activity in assay [1] was 60.1%.
